In PubChem BioAssay AID330 (DTP/NCI, 2004):
Where “and” joins values, the source holds several entries; their conditions need not be identical. Equal entries are not always repeated. Toxic doses and inconclusive results are not listed.

System: P388 leukemia ip, CD2F1 mice, survival T/C
Assay: NCI In Vivo Anticancer Drug Screen. Data for tumor model P388 Leukemia (intraperitoneal) in CD2F1 (CDF1) mice
Details: endpoint: median survival time, higher = longer survival
Method in brief: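 Mice carrying the transplanted tumor received test compound or vehicle. Survival was recorded in each group, and the value is the treated-group measurement divided by that of the vehicle-treated control group.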

Structure (SMILES): O=C1OC(C(O)CO)C(O)=C1O (stereo not drawn)
- T/C (dose: 0.05 mg/kg/injection, schedule: Q01DX005 (iv), vehicle: saline): 108 % of control
- T/C (dose: 0.05 mg/kg/injection, schedule: Q01DX009 (im), vehicle: saline): 100 % of control
- T/C (dose: 0.05 mg/kg/injection, schedule: Q01DX009 (oral), vehicle: saline): 100 % of control
- T/C (dose: 0.1 mg/kg/injection, schedule: Q01DX005 (iv), vehicle: saline): 117 % of control
- T/C (dose: 0.1 mg/kg/injection, schedule: Q01DX009 (im), vehicle: saline): 100 % of control
- T/C (dose: 0.1 mg/kg/injection, schedule: Q01DX009 (oral), vehicle: saline): 100 % of control and 104 % of control
- T/C (dose: 0.1 mg/kg/injection, schedule: Q01DX009 (sc), vehicle: saline): 109 % of control
- T/C (dose: 0.1 mg/kg/injection, schedule: Q08HX010 (ip), vehicle: saline): 99 % of control
- T/C (dose: 0.2 mg/kg/injection, schedule: Q01DX005 (iv), vehicle: saline): 104 % of control
- T/C (dose: 0.2 mg/kg/injection, schedule: Q01DX009 (im), vehicle: saline): 100 % of control
- T/C (dose: 0.2 mg/kg/injection, schedule: Q01DX009 (oral), vehicle: saline): 100 % of control
- T/C (dose: 0.2 mg/kg/injection, schedule: Q01DX009 (sc), vehicle: saline): 109 % of control
- T/C (dose: 0.2 mg/kg/injection, schedule: Q08HX010 (ip), vehicle: saline): 99 % of control
- T/C (dose: 0.39 mg/kg/injection, schedule: Q01DX005 (iv), vehicle: saline): 113 % of control
- T/C (dose: 0.39 mg/kg/injection, schedule: Q01DX009 (im), vehicle: saline): 104 % of control
- T/C (dose: 0.39 mg/kg/injection, schedule: Q01DX009 (oral), vehicle: saline): 100 % of control and 108 % of control
- T/C (dose: 0.39 mg/kg/injection, schedule: Q01DX009 (sc), vehicle: saline): 100 % of control
- T/C (dose: 0.4 mg/kg/injection, schedule: Q08HX010 (ip), vehicle: saline): 99 % of control
- T/C (dose: 0.78 mg/kg/injection, schedule: Q01DX005 (iv), vehicle: saline): 104 % of control
- T/C (dose: 0.78 mg/kg/injection, schedule: Q01DX009 (im), vehicle: saline): 104 % of control
- T/C (dose: 0.78 mg/kg/injection, schedule: Q01DX009 (oral), vehicle: saline): 100 % of control and 95 % of control
- T/C (dose: 0.78 mg/kg/injection, schedule: Q01DX009 (sc), vehicle: saline): 109 % of control
- T/C (dose: 1.56 mg/kg/injection, schedule: Q01DX005 (iv), vehicle: saline): 104 % of control
- T/C (dose: 1.56 mg/kg/injection, schedule: Q01DX009 (im), vehicle: saline): 100 % of control
- T/C (dose: 1.56 mg/kg/injection, schedule: Q01DX009 (oral), vehicle: saline): 100 % of control and 104 % of control
- T/C (dose: 1.56 mg/kg/injection, schedule: Q01DX009 (sc), vehicle: saline): 100 % of control
- T/C (dose: 3.13 mg/kg/injection, schedule: Q01DX005 (iv), vehicle: saline): 104 % of control
- T/C (dose: 3.13 mg/kg/injection, schedule: Q01DX009 (im), vehicle: saline): 104 % of control
- T/C (dose: 3.13 mg/kg/injection, schedule: Q01DX009 (oral), vehicle: saline): 100 % of control and 116 % of control
- T/C (dose: 3.13 mg/kg/injection, schedule: Q01DX009 (sc), vehicle: saline): 100 % of control
- T/C (dose: 6.25 mg/kg/injection, schedule: Q01DX005 (iv), vehicle: saline): 104 % of control
- T/C (dose: 6.25 mg/kg/injection, schedule: Q01DX009 (im), vehicle: saline): 104 % of control
- T/C (dose: 6.25 mg/kg/injection, schedule: Q01DX009 (oral), vehicle: saline): 100 % of control and 112 % of control
- T/C (dose: 6.25 mg/kg/injection, schedule: Q01DX009 (sc), vehicle: saline): 95 % of control
- T/C (dose: 10.0 mg/kg/injection, schedule: Q01DX005 (ip), vehicle: saline): 100 % of control
- T/C (dose: 12.5 mg/kg/injection, schedule: Q01DX005 (iv), vehicle: saline): 104 % of control
- T/C (dose: 12.5 mg/kg/injection, schedule: Q01DX009 (im), vehicle: saline): 109 % of control
- T/C (dose: 12.5 mg/kg/injection, schedule: Q01DX009 (oral), vehicle: saline): 100 % of control and 108 % of control
- T/C (dose: 12.5 mg/kg/injection, schedule: Q01DX009 (sc), vehicle: saline): 104 % of control
- T/C (dose: 20.0 mg/kg/injection, schedule: Q01DX005 (ip), vehicle: saline): 100 % of control
- T/C (dose: 25.0 mg/kg/injection, schedule: Q01DX005 (iv), vehicle: saline): 104 % of control
- T/C (dose: 25.0 mg/kg/injection, schedule: Q01DX009 (im), vehicle: saline): 100 % of control
- T/C (dose: 25.0 mg/kg/injection, schedule: Q01DX009 (oral), vehicle: saline): 100 % of control and 104 % of control
- T/C (dose: 25.0 mg/kg/injection, schedule: Q01DX009 (sc), vehicle: saline): 100 % of control
- T/C (dose: 40.0 mg/kg/injection, schedule: Q01DX005 (ip), vehicle: saline): 103 % of control
- T/C (dose: 50.0 mg/kg/injection, schedule: Q01DX005 (iv), vehicle: saline): 117 % of control
- T/C (dose: 50.0 mg/kg/injection, schedule: Q01DX009 (im), vehicle: saline): 109 % of control
- T/C (dose: 50.0 mg/kg/injection, schedule: Q01DX009 (oral), vehicle: saline): 100 % of control and 108 % of control
- T/C (dose: 50.0 mg/kg/injection, schedule: Q01DX009 (sc), vehicle: saline): 100 % of control
- T/C (dose: 60.0 mg/kg/injection, schedule: Q01DX005 (ip), vehicle: saline): 100 % of control
- T/C (dose: 100.0 mg/kg/injection, schedule: Q01DX005 (iv), vehicle: saline): 100 % of control
- T/C (dose: 100.0 mg/kg/injection, schedule: Q01DX009 (im), vehicle: saline): 104 % of control
- T/C (dose: 100.0 mg/kg/injection, schedule: Q01DX009 (oral), vehicle: saline): 100 % of control
- T/C (dose: 100.0 mg/kg/injection, schedule: Q01DX009 (sc), vehicle: saline): 100 % of control
- T/C (dose: 120.0 mg/kg/injection, schedule: Q01DX005 (ip), vehicle: saline): 102 % of control
- T/C (dose: 200.0 mg/kg/injection, schedule: Q01DX005 (iv), vehicle: saline): 104 % of control
- T/C (dose: 200.0 mg/kg/injection, schedule: Q01DX009 (im), vehicle: saline): 104 % of control
- T/C (dose: 200.0 mg/kg/injection, schedule: Q01DX009 (oral), vehicle: saline): 100 % of control and 104 % of control
- T/C (dose: 200.0 mg/kg/injection, schedule: Q01DX009 (sc), vehicle: saline): 90 % of control
- T/C (dose: 250.0 mg/kg/injection, schedule: Q01DX005 (ip), vehicle: saline): 86 % of control
- T/C (dose: 300.0 mg/kg/injection, schedule: Q08HX010 (ip), vehicle: saline): 99 % of control
- T/C (dose: 400.0 mg/kg/injection, schedule: Q01DX005 (iv), vehicle: saline): 100 % of control
- T/C (dose: 400.0 mg/kg/injection, schedule: Q01DX009 (im), vehicle: saline): 100 % of control
- T/C (dose: 400.0 mg/kg/injection, schedule: Q01DX009 (ip), vehicle: saline): 110 % of control and 77 % of control
- T/C (dose: 400.0 mg/kg/injection, schedule: Q01DX009 (oral), vehicle: saline): 108 % of control and 95 % of control
- T/C (dose: 400.0 mg/kg/injection, schedule: Q01DX009 (sc), vehicle: saline): 104 % of control
- T/C (dose: 500.0 mg/kg/injection, schedule: Q01DX005 (ip), vehicle: saline): 86 % of control
- T/C (dose: 600.0 mg/kg/injection, schedule: Q08HX010 (ip), vehicle: saline): 102 % of control and 94 % of control
- T/C (dose: 800.0 mg/kg/injection, schedule: Q01DX009 (im), vehicle: saline): 100 % of control
- T/C (dose: 800.0 mg/kg/injection, schedule: Q01DX009 (ip), vehicle: saline): 99 % of control and 94 % of control
- T/C (dose: 800.0 mg/kg/injection, schedule: Q01DX009 (oral), vehicle: saline): 100 % of control and 108 % of control
- T/C (dose: 800.0 mg/kg/injection, schedule: Q01DX009 (sc), vehicle: saline): 95 % of control
- T/C (dose: 1000.0 mg/kg/injection, schedule: Q01DX005 (ip), vehicle: saline): 87 % of control
- T/C (dose: 1200.0 mg/kg/injection, schedule: Q01DX009 (ip), vehicle: saline): 110 % of control
- T/C (dose: 1200.0 mg/kg/injection, schedule: Q08HX010 (ip), vehicle: saline): 101 % of control and 94 % of control
- T/C (dose: 1600.0 mg/kg/injection, schedule: Q01DX009 (im), vehicle: saline): 100 % of control
- T/C (dose: 1600.0 mg/kg/injection, schedule: Q01DX009 (ip), vehicle: saline): 102 % of control and 61 % of control
- T/C (dose: 1600.0 mg/kg/injection, schedule: Q01DX009 (oral), vehicle: saline): 100 % of control and 91 % of control
- T/C (dose: 1600.0 mg/kg/injection, schedule: Q01DX009 (sc), vehicle: saline): 104 % of control

Structure (SMILES): CN(C)N=Nc1ccc(S(=O)(=O)Nc2ncccn2)cc1
- T/C (dose: 8.75 mg/kg/injection, schedule: Q01DX009 (ip), vehicle: saline with Tween-80): 107 % of control
- T/C (dose: 35.0 mg/kg/injection, schedule: Q01DX009 (ip), vehicle: saline with Tween-80): 160 % of control
- T/C (dose: 50.0 mg/kg/injection, schedule: Q04DX003 (ip), vehicle: saline with Tween-80): 96 % of control
- T/C (dose: 400.0 mg/kg/injection, schedule: Q04DX003 (ip), vehicle: saline with Tween-80): 111 % of control and 92 % of control
